Measured values: patent EP0117429A1, “Phosphorous containing compounds as inhibitors of enkephalinases” (SCHERING CORPORATION, priority 1983, dated 1984)
Where a name gives a salt, the structure may show the parent alone.

Columns and labels:
enkephalinase A = target: T1, enkephalinase A (Rattus norvegicus, UniProt P07861); experiment: Enkephalinase A inhibition, radiometric assay with 3H-Met5-ENK substrate and TLC separation; type: biochemical, Sprague-Dawley rats; conditions: enkephalinase A fraction from rat brain membranes; substrate 3H-Met5-ENK 40 nM; 90 minutes at 37°C; pH 7.4
T1 construct: from tissue; host or cells: rat brain (minus cerebellum), Triton X-100 solubilised membranes, DEAE Sephacel fraction
T1 sequence (P07861 1-750): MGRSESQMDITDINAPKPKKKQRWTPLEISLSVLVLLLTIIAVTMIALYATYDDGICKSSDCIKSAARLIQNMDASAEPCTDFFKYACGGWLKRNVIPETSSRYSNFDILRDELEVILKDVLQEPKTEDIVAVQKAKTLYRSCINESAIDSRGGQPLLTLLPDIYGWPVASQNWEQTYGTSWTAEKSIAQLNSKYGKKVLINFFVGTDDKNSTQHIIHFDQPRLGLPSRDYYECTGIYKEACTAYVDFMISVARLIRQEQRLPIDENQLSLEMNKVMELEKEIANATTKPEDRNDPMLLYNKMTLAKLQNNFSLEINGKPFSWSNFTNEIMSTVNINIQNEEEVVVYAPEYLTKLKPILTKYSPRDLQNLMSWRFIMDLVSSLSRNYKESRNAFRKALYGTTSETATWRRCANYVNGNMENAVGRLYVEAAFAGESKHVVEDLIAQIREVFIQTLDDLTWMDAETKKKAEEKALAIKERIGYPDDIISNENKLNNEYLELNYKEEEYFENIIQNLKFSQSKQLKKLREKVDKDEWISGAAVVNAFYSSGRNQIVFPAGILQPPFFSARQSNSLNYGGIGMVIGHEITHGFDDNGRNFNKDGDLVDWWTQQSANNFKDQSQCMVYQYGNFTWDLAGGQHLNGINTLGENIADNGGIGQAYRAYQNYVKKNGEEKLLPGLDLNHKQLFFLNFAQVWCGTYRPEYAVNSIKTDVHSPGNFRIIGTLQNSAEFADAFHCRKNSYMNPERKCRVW
Description: Enzyme activity was separated by taking the brain tissue (minus cerebellum) from Sprague-Dawley rats and homogenizing it in 30 volumes of 50 mM Tris buffer, pH 7.4, using a Brinkmann Polytron. The resulting homogenate is centrifuged at 50,000 x g for 15 minutes. The pellet, constituting the membrane bound enzyme material, was washed by resuspending it in Tris and re- centrifuging it 4 times.
Following washing, solubilization of the membrane pellet was achieved by incubating it for 45 minutes at 37 °C in the presence of 15 volumes (based on initial brain weight) of 50 mM Tris-l% Triton X-100 buffer, pH 7.4. After centrifugation at 100,000 x g for 60 minutes to remove non-solubilized material, the Triton soluble supernatant was layered on a 1.5 x 30 cm DEAE Sephacel column previously equilibrated with.50 mM Tris-0.1% Triton, pH 7.4. Material was eluted from the column using a 1 liter linear NaCl gradient running from 0.0 to 0.4 M. Effluent was collected in 7 ml fractions, each of which was assayed for enkephalin degrading activity.
Enkephalin degrading activity was monitored using a radiometric assay. The substrate was ^3H-Met5-ENK (50.1 Ci/mmol, New England Nuclear) diluted in 0.05 M Tris buffer, pH 7.4, such that the final reaction mixture concentration was 40 nM. Total reaction mixture volume including enzyme and substrate was 250 µl. Incubation was carried out for 90 minutes at 37°C. To stop the reaction, tubes were transferred to a boiling water bath for 15 minutes.
Assay products were separated form one another using thin layer chromatography. […] Total running time was approximately 17 hours. TLC tanks are gassed with nitrogen prior to starting the run. Following the run, markers are visualized with ninhydrin spray. These spots, along with remaining plate regions, are cut from the plate and the radioactivity corresponding to each monitored using liquid scintillation counting. IC50's are determined using linear regression techniques.

Male CF1 mice = experiment: Potentiation of the analgesic effects of DAEAM, mouse tailflick test; type: in vivo; conditions: dose at which half the test animals displayed analgesia, DAEAM icv, tailflick latency 30 minutes after DAEAM, cut-off 10 seconds
Description: The following test procedure was utilized to assess the noted compounds' potentiation of the analgesic effects of (D-Ala^2-Met^5)-enkephalinamide (DAEAM).
Male CF1 mice (19-23 g) from Charles River Breeding Labs, Mass., were used (N=10/dose or dose combination). […] Tailflick latencies were re-determined 30 minutes later, as this has previously been determined to be the time of peak analgesia for DAEAM, and a cut-off of 10 seconds is employed.

Row | Compound | IC50 (enkephalinase A) | Oral ED50, in mice (Male CF1 mice)
1 | CCOC(=O)CCNC(=O)C(Cc1ccc(C(F)(F)F)cc1)CP(=O)(O)O (racemic) [R,S, -CF3, -CONH-, -(CH2)2-, -OC2H5] | 2200 nM | –
2 | CC(OC(=O)NC(Cc1ccccc1)CP(=O)(O)O)C(=O)O [R,S, -H, -NHCOO-, -C^**H(CH3)-, -OH, 2-[2-phenyl-l-(phosphonomethyl)ethyl]aminocarbonyloxy-propanoic acid] | 100 nM | –
3 | O=C(O)CCNC(=O)C(Cc1ccc(C(F)(F)F)cc1)CP(=O)(O)O (racemic) [R,S, -CF3, -CONH-, -(CH2)2-, -OH, N-[1-Oxo-2-phosphonomethyl-3-(4-trifluoromethyl)phenylpropyl]-β-alanine] | 60 nM | –
4 | O=C(O)CCNC(=O)C(Cc1ccc(-c2ccccc2)cc1)CP(=O)(O)O (racemic) [R,S, -C6H5, -CONH-, -(CH2)2-, -OH, N-[(R,S)-3-(1,1'-Biphenyl-4-yl)-1-oxo-2-(phosphonomethyl)-propyl]-β-alanine] | 1.3 nM | –
5 | O=C(O)CCNC(=O)[C@H](Cc1ccc(Cl)cc1)CP(=O)(O)O [S, -Cl, -CONH-, -(CH2)2-, -OH, N-[3-(a-chloro)phenyl-1-oxo-2-(phosphonomethyl)propyl]-B-alanine] | 11 nM | 25 mg/kg
6 | CCOC(=O)CCNC(=O)[C@H](Cc1ccccc1)CP(=O)(O)O [S, -H, -CONH-, -(CH2)2-, -OC2H5, N-[(S)=1-Oxo-3-phenyl-2-(phostphonomethyl)propyl] -β-alanine ethyl ester calcium salt] | 60 nM | 2.5 mg/kg
7 | O=C(O)CCCNC(=O)C(Cc1ccccc1)CP(=O)(O)O (centres unmarked) [S, -H, -CONH-, -(CH2)3-, -OH, 4-[1-oxo-3-phenyl-2-(phosphonomethyl)propyl]amino-butanoic acid] | 80 nM | –
8 | O=C(O)CCNC(=O)[C@@H](Cc1ccccc1)CP(=O)(O)O [R, -H, -CONH-, -(CH2)2-, -OH, N-[(R)-1-oxo-3-phenyl-2-)phosphonomethyl)propyl] -(β-alanine calcium salt] | 600 nM | –
9 | CCOC(=O)c1ccc(NC(=O)C(Cc2ccccc2)CP(=O)(O)O)cc1 (centres unmarked) [S, -H, -CONH-, p-C6H4-, -OC2H5, 4-[1-oxo-3-phenyl-2-(phosphonomethyl)propyl]aminobenzoic acid ethyl ester] | 63 nM | –
10 | O=C(CCNC(=O)[C@H](Cc1ccccc1)CP(=O)(O)O)OCCOc1ccccc1 [S, -H, -CONH-, -(CH2)2-, -O(CH2)2OC6H5, N-[(S)-1-Oxo-3-phenyl-2-(phosphonomethyl)propyl)-β-alanine 2-phenoxyethyl ester] | 210 nM | –
11 | 3-[(S) -2- (Diethoxyphosphinyl) methyl -1-oxo-3 -nhenyl- propyl]amino-2-(R,S)-methylpropanoic acid calcium salt [S, -H, -CONH-, -CH2C^**H(CH3)-, -OH] | 25.5 nM | 20 mg/kg
12 | O=C(O)C(O)CNC(=O)C(Cc1ccccc1)CP(=O)(O)O (centres unmarked) [S, -H, -CONH-, -CH2C^***H(OH)-, -OH, 3-[1-Oxo-3-phenyl-2-(phosphonomethyl)propyl]amino-2-hydroxypropanoic Acid] | 25 nM | –
13 | N-L(S)-1-Oxo-3-phenyl-2-(phosphonomethyl)propyl]-β-alanine calcium salt [S, -H, -CONH-, -(CH2)2-, -OH] | 19 nM | 3 mg/kg
